The values below come from patent publication US10821093B2, “Antibacterial microelement chelates and the use thereof in animal feeds” (priority 2012, dated 2020).

Marks after values point to notes of the source that are not given here. Some results are limits rather than exact numbers.

In data set [1] the test system is Clostridium perfringens. It is filed as cell-based.
Data set [2] deals with Brachyspira hyodysenteriae. The data set can be described thus: MIC (single chelates and combinations).
Another data set deals with Streptococcus agalactiae. The data set can be described thus: MIC, liquid culture dilution. It is filed as cell-based.
For the next data set, the system named is Saccharomyces cerevisiae. The data set can be described thus: MIC, liquid culture dilution. Type of data set: cell-based.
For a further data set, the system named is Escherichia coli. The data set can be described thus: MIC, liquid culture dilution (single chelates and cross-dilution combinations). Type of data set: cell-based.
The subject of the next data set is Staphylococcus aureus. The data set can be described thus: MIC, liquid culture dilution. It is filed as cell-based.
The subject of the next data set is Salmonella enterica. The data set can be described thus: MIC, liquid culture dilution (single chelates and cross-dilution combinations). It is filed as cell-based, Salmonella enterica subp. Enterica serovar enteritidis.
A further data set concerns LACTIC ACID PRODUCERS
The data set can be described thus: MIC, liquid culture dilution. Type of data set: cell-based.

Data set [3] relates to Clostridium perfringens. The note with it: treatment group III.
For the next data set, the system named is Micrococcus luteus. The data set can be described thus: MIC, liquid culture dilution. It is filed as cell-based.
The test system of data set [4] is Clostridium perfringens.
The next data set has as its system Lawsonia intracellularis. The protocol:
Experimental feeding was performed with growing pigs, under pilot environmental conditions with the animal paired methods on a stock infected with the pathogen Lawsonia intracellularis. The control group received the usual antibiotic supplement mixed into the feed.

The mark [5] stands for this setting: 1 kg/t in feed, 101 days of fattening.
[6] abbreviates: vs antibiotic-supplemented control.

Turning to Zn malate [Zn(H2O)-bis-malate], the “Minimal inhibitory concentration (MIC)” value with Clostridium perfringens [1] worked out at 360 ppm; in data set [2], 4400 ppm; in the data set on Streptococcus agalactiae, 180 ppm; with Saccharomyces cerevisiae it was 600 ppm; in the data set on Escherichia coli, 90 ppm; in the data set with Staphylococcus aureus, 160 ppm. In addition, the “Minimal inhibitory concentration (MIC)” value in the data set with Salmonella enterica amounted to 120 ppm; in the data set with LACTIC ACID PRODUCERS it was 500 ppm.
`O=C(O)CC(O)C(=O)[O-].O=C(O)CC(O)C(=O)[O-].[Zn+2]` (stereo not shown) [Zn bis-malate]: the “Minimal inhibitory concentration (MIC)” value in the data set on Saccharomyces cerevisiae stood at 600 ppm; in the data set on Escherichia coli, 280 ppm; with Salmonella enterica, 360 ppm; with LACTIC ACID PRODUCERS it was 600 ppm.
With `O.O=C(O)CC(O)C(=O)[O-].O=C(O)CC(O)C(=O)[O-].[Cu+2]` (stereo not shown) [Cu(H2O) bis-malate], the “Minimal inhibitory concentration (MIC)” value amounted to 50 ppm in the data set with Clostridium perfringens [1], 88 ppm in data set [2], 120 ppm in the data set on Escherichia coli and 210 ppm in the data set on Salmonella enterica.
Take `[NH3+][Cu]1([NH3+])[O]C(=O)CN(CC(=O)O)CCN(CC(=O)O)CC(=O)[O]1` [Cu diamino ethylenediamine tetraacetic acid]: the “Minimal inhibitory concentration (MIC)” value in the data set with Clostridium perfringens [1] was found to be 20 ppm. Also, the “Minimal inhibitory concentration (MIC)” value in data set [2] is on record as 80 ppm. Further, in the data set with Clostridium perfringens [3], the “Egg yield increase compared to the negative control group” value is given as 6.7% and the “Egg yield increase compared to the positive control group” value is 22.4%. Further, the Total eggs with Clostridium perfringens [3] (36 hens, C. perfringens inoculated) was found to be 1868 pc. In addition, in the data set on Clostridium perfringens [3] (C. perfringens inoculated), the No. of eggs/hen is on record as 51.80 and the Total egg weight was 125.70 kg. Besides, the Weight of egg with Clostridium perfringens [3] (g/pc.) is given as 67.2 g.
Iron mono-glycinate: the “Minimal inhibitory concentration (MIC)” value in the data set with Micrococcus luteus is 100 ppm; with Saccharomyces cerevisiae, 1000 ppm; in the data set with Escherichia coli, 350 ppm; in the data set on Salmonella enterica it was 450 ppm; in the data set with LACTIC ACID PRODUCERS, 1000 ppm.
`[NH3+][Cu]([NH3+])([O]C(=O)C(O)CC(=O)O)[O]C(=O)C(O)CC(=O)O` (stereo not shown) [Cu diammine bis-malate]: the “Minimal inhibitory concentration (MIC)” value was 65 ppm with Clostridium perfringens [1]; 143 ppm in [2]; 131 ppm with Streptococcus agalactiae; 262 ppm with Escherichia coli; 262 ppm with Staphylococcus aureus.
On to `C[C@H](N)C(=O)[O-].C[C@H](N)C(=O)[O-].O.[Zn+2]` [Zn(H2O) bis-alaninate], for which the “Minimal inhibitory concentration (MIC)” value in the data set on Clostridium perfringens [1] is reported as more than 4000 ppm; in data set [2], more than 4000 ppm; in the data set with Escherichia coli, 100 ppm; in the data set on Salmonella enterica, 110 ppm.
Consider `NCC(=O)[O][Cu]([NH3+])([NH3+])[O]C(=O)CN` [copper diammonium bis-glycinate], for which, in the data set with Clostridium perfringens [4] (1.0 kg/t in feed, 42 days), the Relative feed utilization worked out at 1.89 kg/kg, the Total feed use was 59 880 kg, the Total living weight was 32 395 kg and the Total weight gain is 31 681 kg. Further, the Chicken shipped in the data set with Clostridium perfringens [4] (1.0 kg/t in feed, 42 days, 17 100 chicks at start) was 16 238. Besides, the Mean slaughter weight with Clostridium perfringens [4] (1.0 kg/t in feed, 42 days, difference significant at P ≤ 0.001) is recorded as 1995*** g. Also, the “Faeces, signs of diarrhea” value with Clostridium perfringens [4] (experimental group, observation) was “no signs of a change indicating diarrhea was visible”. The Adverse side effects result in the data set on Clostridium perfringens [4] (feeding the experimental composition, 1.0 kg/t) is on record as “No adverse side effects were observed”. In addition, in the data set with Clostridium perfringens [4] (vs unsupplemented control), the “Chicken shipped, difference to control group” value was 4; the “Relative feed utilization, difference to control group (less feed per unit live weight gain)” value is given as 3.6%; the “Total feed use, difference to control group” value is given as 620 kg. In the data set with Lawsonia intracellularis (setting [5]), this molecule gave an Added weight of 76.15 kg, an Average slaughter weight of 107.01 kg and a Feed utilization of 3.10 kg/kg. In the data set on Lawsonia intracellularis (setting [6]), the “Added weight higher than control” value worked out at 6.2%, the “Feed utilization better than control” value stood at 6.8% and the “Slaughter weight higher than control” value turned out to be 1.6%.
